Results reported in US20260124184A1, “ONCE DAILY ALDOSTERONE SYNTHASE INHIBITOR (R)-(+)-5-(P-CYANOPHENYL)-5,6,7,8-TETRAHYDROIMIDAZO[L,5-A]PYRIDINE” (priority 2022, published 2026).
Like-named read-outs stand apart in the source and are kept apart here.

Columns and labels:
[1] = tested on: patients with primary aldosteronism
Description: (§1) A double-blind, randomized, Phase 2 trial was conducted between November 2019 and June 2022 at 11 centres in Italy, Switzerland and the Netherlands (NCT04007406). […] Patients requiring fixed-dose antihypertensive therapy continued treatment throughout the study; steroid therapies, β-adrenergic and renin-angiotensin-aldosterone system blockers were not permitted. At 14-day intervals, office blood pressures were recorded and blood samples were taken for measurement of steroid and peptide hormones and electrolytes at a central laboratory.
Blood pressure and pulse rate were measured at each visit after a >15-minute rest in sitting position. Blood pressure and pulse rate were measured using a locally calibrated and validated automated oscillometric device (e.g., Omron Healthcare). An adapted wrap cuff was placed on the dominant arm. Three repeat measurements with a 10-minute interval were recorded; the average of the 2nd and 3rd measurements were study relevant.
For all efficacy endpoints, changes from baseline were calculated from linear models and accompanied by 95% confidence intervals and p values. Log-transformed values were used for changes in ARR. The full analysis set (FAS) and safety set were defined as all randomized patients who received at least one dose of study drug.

[2] = tested on: patients with primary aldosteronism; remark: listed apart in the source
Description: as §1
Plasma aldosterone and plasma renin concentration were measured centrally under GCP regulations using the Liaison® chemiluminescent immunoassay kit supplied by DiaSorin S.p.A. Italy. The system used specific monoclonal antibodies to prevent cross reactions with other major potential reactants in the serum samples. The monoclonal antibodies directed against specific epitopes of the renin molecule allowed accurate and sensitive quantification. The assays were performed according to the instructions provided by the manufacturer. […] The analytical sensitivity was <0.97 ng/ml. […] The analytical sensitivity was <0.53 IU/mL.

[3] = 4 mg once daily, n=10, Day 1 (baseline)
[4] = 4 mg once daily, n=10, Day 70 (after placebo withdrawal)
[5] = 8 mg once daily, n=12, Day 1 (baseline)
[6] = 8 mg once daily, n=12, Day 70 (after placebo withdrawal)

(R)-(+)-5-(p-cyanophenyl)-5,6,7,8-tetrahydroimidazolium[1,5-a]pyridine dihydrogen phosphate [dexfadrostat phosphate]
office blood pressure (oSBP), mean [1, 3]: 146.95 mmHg
office blood pressure (oSBP), median [1, 3]: 144.00 mmHg
office blood pressure (oSBP), mean ([1]; 4 mg once daily, n=10, Day 14): 134.55 mmHg
office blood pressure (oSBP), median ([1]; 4 mg once daily, n=10, Day 14): 136.25 mmHg
office blood pressure (oSBP), mean ([1]; 4 mg once daily, n=10, Day 28): 133.70 mmHg
office blood pressure (oSBP), median ([1]; 4 mg once daily, n=10, Day 28): 130.50 mmHg
office blood pressure (oSBP), mean ([1]; 4 mg once daily, n=10, Day 42): 134.90 mmHg
office blood pressure (oSBP), median ([1]; 4 mg once daily, n=10, Day 42): 132.75 mmHg
office blood pressure (oSBP), mean ([1]; 4 mg once daily, n=10, Day 56): 133.00 mmHg
office blood pressure (oSBP), median ([1]; 4 mg once daily, n=10, Day 56): 133.75 mmHg
office blood pressure (oSBP), mean [1, 4]: 142.20 mmHg
office blood pressure (oSBP), median [1, 4]: 145.25 mmHg
office blood pressure (oSBP), mean [1, 5]: 148.00 mmHg
office blood pressure (oSBP), median [1, 5]: 147.00 mmHg
office blood pressure (oSBP), mean ([1]; 8 mg once daily, n=12, Day 14): 137.88 mmHg
office blood pressure (oSBP), median ([1]; 8 mg once daily, n=12, Day 14): 137.50 mmHg
office blood pressure (oSBP), mean ([1]; 8 mg once daily, n=12, Day 28): 135.08 mmHg
office blood pressure (oSBP), median ([1]; 8 mg once daily, n=12, Day 28): 133.25 mmHg
office blood pressure (oSBP), mean ([1]; 8 mg once daily, n=12, Day 42): 137.83 mmHg
office blood pressure (oSBP), median ([1]; 8 mg once daily, n=12, Day 42): 134.50 mmHg
office blood pressure (oSBP), mean ([1]; 8 mg once daily, n=12, Day 56): 134.42 mmHg
office blood pressure (oSBP), median ([1]; 8 mg once daily, n=12, Day 56): 135.75 mmHg
office blood pressure (oSBP), mean [1, 6]: 142.46 mmHg
office blood pressure (oSBP), median [1, 6]: 139.75 mmHg
office blood pressure upon drug withdrawal ([1]; Day 70, after 14-day placebo withdrawal): blood pressure values returned towards baseline levels
effect on office blood pressure ([1]; each dose arm, sustained over active treatment period): rapid and significant (p≤0.001) decrease in office blood pressure
plasma aldosterone concentration, mean ([2]; baseline aldosterone 400-600 pmol/L, 4 mg QD, Day 1 (baseline)): 433 pmol/L
plasma aldosterone concentration, mean ([2]; baseline aldosterone 400-600 pmol/L, 4 mg QD, Day 14): 155 pmol/L
plasma aldosterone concentration, mean ([2]; baseline aldosterone 400-600 pmol/L, 4 mg QD, Day 28): 100 pmol/L
plasma aldosterone concentration, mean ([2]; baseline aldosterone 400-600 pmol/L, 4 mg QD, Day 42): 117 pmol/L
plasma aldosterone concentration, mean ([2]; baseline aldosterone 400-600 pmol/L, 4 mg QD, Day 56): 141 pmol/L
plasma aldosterone concentration, mean ([2]; baseline aldosterone 400-600 pmol/L, 4 mg QD, Day 70 (placebo withdrawal)): 425 pmol/L
plasma aldosterone concentration, mean ([2]; baseline aldosterone 400-600 pmol/L, 8 mg QD, Day 1 (baseline)): 404 pmol/L
plasma aldosterone concentration, mean ([2]; baseline aldosterone 400-600 pmol/L, 8 mg QD, Day 14): 70 pmol/L
plasma aldosterone concentration, mean ([2]; baseline aldosterone 400-600 pmol/L, 8 mg QD, Day 28): 70 pmol/L
plasma aldosterone concentration, mean ([2]; baseline aldosterone 400-600 pmol/L, 8 mg QD, Day 42): 47 pmol/L
plasma aldosterone concentration, mean ([2]; baseline aldosterone 400-600 pmol/L, 8 mg QD, Day 56): 58 pmol/L
plasma aldosterone concentration, mean ([2]; baseline aldosterone 400-600 pmol/L, 8 mg QD, Day 70 (placebo withdrawal)): 300 pmol/L
plasma aldosterone concentration, mean ([2]; baseline aldosterone 400-600 pmol/L, 12 mg QD, Day 1 (baseline)): 431 pmol/L
plasma aldosterone concentration, mean ([2]; baseline aldosterone 400-600 pmol/L, 12 mg QD, Day 14): 63 pmol/L
plasma aldosterone concentration, mean ([2]; baseline aldosterone 400-600 pmol/L, 12 mg QD, Day 28): 132 pmol/L
plasma aldosterone concentration, mean ([2]; baseline aldosterone 400-600 pmol/L, 12 mg QD, Day 42): 142 pmol/L
plasma aldosterone concentration, mean ([2]; baseline aldosterone 400-600 pmol/L, 12 mg QD, Day 56): 61 pmol/L
plasma aldosterone concentration, mean ([2]; baseline aldosterone 400-600 pmol/L, 12 mg QD, Day 70 (placebo withdrawal)): 297 pmol/L
plasma aldosterone concentration, mean ([2]; baseline aldosterone 600-1000 pmol/L, 4 mg QD, Day 1 (baseline)): 728 pmol/L
plasma aldosterone concentration, mean ([2]; baseline aldosterone 600-1000 pmol/L, 4 mg QD, Day 14): 186 pmol/L
plasma aldosterone concentration, mean ([2]; baseline aldosterone 600-1000 pmol/L, 4 mg QD, Day 28): 248 pmol/L
plasma aldosterone concentration, mean ([2]; baseline aldosterone 600-1000 pmol/L, 4 mg QD, Day 42): 114 pmol/L
plasma aldosterone concentration, mean ([2]; baseline aldosterone 600-1000 pmol/L, 4 mg QD, Day 56): 250 pmol/L
plasma aldosterone concentration, mean ([2]; baseline aldosterone 600-1000 pmol/L, 4 mg QD, Day 70 (placebo withdrawal)): 325 pmol/L
plasma aldosterone concentration, mean ([2]; baseline aldosterone 600-1000 pmol/L, 8 mg QD, Day 1 (baseline)): 805 pmol/L
plasma aldosterone concentration, mean ([2]; baseline aldosterone 600-1000 pmol/L, 8 mg QD, Day 14): 83 pmol/L
plasma aldosterone concentration, mean ([2]; baseline aldosterone 600-1000 pmol/L, 8 mg QD, Day 28): 120 pmol/L
plasma aldosterone concentration, mean ([2]; baseline aldosterone 600-1000 pmol/L, 8 mg QD, Day 42): 123 pmol/L
plasma aldosterone concentration, mean ([2]; baseline aldosterone 600-1000 pmol/L, 8 mg QD, Day 56): 131 pmol/L
plasma aldosterone concentration, mean ([2]; baseline aldosterone 600-1000 pmol/L, 8 mg QD, Day 70 (placebo withdrawal)): 423 pmol/L
plasma aldosterone concentration, mean ([2]; baseline aldosterone 600-1000 pmol/L, 12 mg QD, Day 1 (baseline)): 912 pmol/L
plasma aldosterone concentration, mean ([2]; baseline aldosterone 600-1000 pmol/L, 12 mg QD, Day 14): 123 pmol/L
plasma aldosterone concentration, mean ([2]; baseline aldosterone 600-1000 pmol/L, 12 mg QD, Day 28): 104 pmol/L
plasma aldosterone concentration, mean ([2]; baseline aldosterone 600-1000 pmol/L, 12 mg QD, Day 42): 85 pmol/L
plasma aldosterone concentration, mean ([2]; baseline aldosterone 600-1000 pmol/L, 12 mg QD, Day 56): 82 pmol/L
plasma aldosterone concentration, mean ([2]; baseline aldosterone 600-1000 pmol/L, 12 mg QD, Day 70 (placebo withdrawal)): 466 pmol/L
plasma aldosterone concentration, mean ([2]; baseline aldosterone 1000-2500 pmol/L, 4 mg QD, Day 1 (baseline)): 2005 pmol/L
plasma aldosterone concentration, mean ([2]; baseline aldosterone 1000-2500 pmol/L, 4 mg QD, Day 14): 816 pmol/L
plasma aldosterone concentration, mean ([2]; baseline aldosterone 1000-2500 pmol/L, 4 mg QD, Day 28): 531 pmol/L
plasma aldosterone concentration, mean ([2]; baseline aldosterone 1000-2500 pmol/L, 4 mg QD, Day 42): 629 pmol/L
plasma aldosterone concentration, mean ([2]; baseline aldosterone 1000-2500 pmol/L, 4 mg QD, Day 56): 589 pmol/L
plasma aldosterone concentration, mean ([2]; baseline aldosterone 1000-2500 pmol/L, 4 mg QD, Day 70 (placebo withdrawal)): 1393 pmol/L
plasma aldosterone concentration, mean ([2]; baseline aldosterone 1000-2500 pmol/L, 8 mg QD, Day 1 (baseline)): 1080 pmol/L
plasma aldosterone concentration, mean ([2]; baseline aldosterone 1000-2500 pmol/L, 8 mg QD, Day 14): 27 pmol/L
plasma aldosterone concentration, mean ([2]; baseline aldosterone 1000-2500 pmol/L, 8 mg QD, Day 28): 57 pmol/L
plasma aldosterone concentration, mean ([2]; baseline aldosterone 1000-2500 pmol/L, 8 mg QD, Day 42): 27 pmol/L
plasma aldosterone concentration, mean ([2]; baseline aldosterone 1000-2500 pmol/L, 8 mg QD, Day 56): 27 pmol/L
plasma aldosterone concentration, mean ([2]; baseline aldosterone 1000-2500 pmol/L, 8 mg QD, Day 70 (placebo withdrawal)): 395 pmol/L
plasma aldosterone concentration, mean ([2]; baseline aldosterone 1000-2500 pmol/L, 12 mg QD, Day 1 (baseline)): 1410 pmol/L
plasma aldosterone concentration, mean ([2]; baseline aldosterone 1000-2500 pmol/L, 12 mg QD, Day 14): 111 pmol/L
plasma aldosterone concentration, mean ([2]; baseline aldosterone 1000-2500 pmol/L, 12 mg QD, Day 28): 74 pmol/L
plasma aldosterone concentration, mean ([2]; baseline aldosterone 1000-2500 pmol/L, 12 mg QD, Day 42): 71 pmol/L
plasma aldosterone concentration, mean ([2]; baseline aldosterone 1000-2500 pmol/L, 12 mg QD, Day 56): 349 pmol/L
plasma aldosterone concentration, mean ([2]; baseline aldosterone 1000-2500 pmol/L, 12 mg QD, Day 70 (placebo withdrawal)): 1264 pmol/L
